Measured values as given in patent US10047105B2, “Gyrase inhibitors” (Merck Sharp & Dohme Corp., priority 2009, dated 2018).
Values after ≈ are worked out from the molar mass of the structure shown.

Columns and labels:
Assay type in all cases: cell-based
[1] = tested on: S. aureus ATCC 13709; assay: MIC, antibacterial potency, S. aureus; conditions: S. aureus (SA); in µg/mL
[2] = tested on: S. pneumoniae ATCC 51916; assay: MIC, S. pneumoniae; conditions: S. pneumoniae (Spn52); in µg/mL
[3] = tested on: E. coli 8 ATCC 25922; assay: MIC, E. coli 8 (wt); conditions: E. coli 8 (EC8)

Row | Compound | MIC, SA [1] | MIC Spn52 [2] | MIC EC8 [3]
1 | CCc1[nH]c2nc(Oc3cnc4cccnc4c3)nc(Oc3cccc(C#N)c3)c2c1Br [701,252] | <=0.5 | <=0.5 | > 64 µg/mL
2 | CCc1[nH]c2nc(Oc3cccc(C#N)c3)nc(Oc3cncnc3)c2c1Br [701,253] | 1 | 4 | > 64 µg/mL
3 | CCc1[nH]c2nc(Oc3cnc(C)nc3)nc(Oc3cnc(C)nc3)c2c1Br [701,254] | <=0.5 | <=0.5 | > 64 µg/mL
4 | CCc1[nH]c2nc(Oc3cncc(C#N)c3)nc(Oc3cnc(N)nc3)c2c1Br [701,255] | <=0.5 | <=0.5 | > 64 µg/mL
5 | CCc1[nH]c2nc(N3CCN(c4cc(C(=O)O)nc5ccc(Cl)cc45)CC3)ncc2c1Cl [701,260] | 8 | 64 | > 64 µg/mL
6 | CCc1[nH]c2nc(Oc3cncc(C#N)c3)ncc2c1Cl [701,261] | 4 | 16 | > 64 µg/mL
7 | CCc1[nH]c2nc(Sc3cnc4ccc[n+]([O-])c4c3)nc(N3CC(NS(C)(=O)=O)C3)c2c1Cl [701,263] | <=0.5 | 1 | > 64 µg/mL
8 | CCc1[nH]c2nc(Oc3cncnc3)nc(Oc3cc(O)cc(C#N)c3)c2c1Cl [701,264] | <=0.5 | <=0.5 | > 64 µg/mL
9 | CCc1[nH]c2nc(Oc3cncc(C(N)=O)c3)ncc2c1Cl [701,265] | 4 | 16 | > 64 µg/mL
10 | CCc1[nH]c2nc(Oc3ccc[n+]([O-])c3)nc(Oc3cccc(C#N)c3)c2c1Br [701,267] | <=0.5 | <=0.5 | 32 µg/mL (≈ 70.8 µM)
11 | CCc1[nH]c2nc(Oc3cncc(C#N)c3)nc(Oc3cc(O)cc(C#N)c3)c2c1Br [701,268] | <=0.5 | <=0.5 | 4 µg/mL (≈ 8.38 µM)
12 | CCc1[nH]c2nc(Sc3cnc4ccc[n+]([O-])c4c3)nc(N3C[C@@H]4[C@@H](CN)[C@@H]4C3)c2c1Cl [701,269] | <=0.5 | <=0.5 | 8 µg/mL (≈ 17.1 µM)
13 | CCc1[nH]c2nc(Sc3cnc4c(c3)c(=O)ncn4C)nc(N3CC4C(N)C4C3)c2c1Cl (stereo not drawn) [701,270] | <=0.5 | 4 | 32 µg/mL (≈ 68.2 µM)
14 | CCc1[nH]c2nc(Oc3cncnc3)nc(Oc3cc(Cl)cc(N4CC(N)C4)c3)c2c1Br [701,273] | <=0.5 | <=0.5 | 16 µg/mL (≈ 31 µM)
15 | CCc1[nH]c2nc(Oc3cncc(C(N)=O)c3)nc(N3CC4C(N)C4C3)c2c1Cl (stereo not drawn) [701,278] | >64 | >64 | > 64 µg/mL
16 | CCc1[nH]c2nc(Oc3ccc4nccnc4c3)nc(Oc3ccc(C#N)cc3Cl)c2c1Cl [701,286] | >64 | >64 | > 64 µg/mL
17 | CCc1[nH]c2nc(Oc3ccc4nccnc4c3)nc(Oc3ccc(C#N)cc3Cl)c2c1Br [701,287] | >64 | >64 | > 64 µg/mL
18 | CCc1[nH]c2nc(Oc3cnc(C)nc3)nc(Oc3cc(C#N)ccc3F)c2c1Br [701,288] | <=0.5 | 1 | > 64 µg/mL
19 | CCc1[nH]c2nc(Oc3ccc4nccnc4c3)nc(OC3CCN(C(=O)OC(C)(C)C)CC3)c2c1Cl [701,289] | 16 | >64 | > 64 µg/mL
20 | CCc1[nH]c2nc(Oc3ccc4nccnc4c3)nc(OC3CCNCC3)c2c1Cl [701,290] | >64 | 64 | > 64 µg/mL
21 | CCc1[nH]c2nc(Oc3cnc(C)nc3)nc(OC3CCNC3)c2c1Cl (stereo not drawn) [701,291] | 32 | 16 | 64 µg/mL (≈ 171 µM)
22 | CCc1[nH]c2nc(Sc3cnc4c(c3)c(=O)ncn4C)nc(N3CC4C(N)C4C3)c2c1C (stereo not drawn) [701,292] | 32 | >32 | > 32 µg/mL
23 | CCc1[nH]c2nc(Oc3cncnc3)nc(Oc3ccc4ncnc(N5CC(N)C5)c4c3)c2c1Cl [701,296] | 8 | 32 | > 64 µg/mL
24 | CCc1[nH]c2nc(Oc3cncnc3)nc(Oc3ccc4ncnc(N5CC(N)C5)c4c3)c2c1Br [701,297] | 4 | 16 | > 64 µg/mL
25 | CCc1[nH]c2nc(Oc3cncc(C#N)c3)nc(Oc3ccc4ncnc(N5CC(N)C5)c4c3)c2c1Br [701,298] | 2 | 4 | > 64 µg/mL
26 | CCc1[nH]c2nc(Oc3ccc4ncnc(N5CC(N)C5)c4c3)nc(Oc3cncc(C#N)c3)c2c1Br [701,299] | 2 | 4 | > 64 µg/mL
27 | CCc1[nH]c2nc(Sc3cnc4ccc[n+]([O-])c4c3)nc(N3CC[C@@H](N)C3)c2c1Cl [701008-2] | <=0.5 | 1 | 4 µg/mL (≈ 9.05 µM)
28 | CCc1[nH]c2nc(Sc3cnc4ccc[n+]([O-])c4c3)nc(N3CC4C(N)C4C3)c2c1Cl (stereo not drawn) [701009-2] | <=0.5 | <=0.5 | 2 µg/mL (≈ 4.41 µM)
